This note sets out measurements from US9439909B2, “Compositions and methods for sensitizing a neoplastic cell to radiation” (The Broad Institute, Inc., priority 2013, dated 2016).

Usually viability stands for a read-out of living cells in per cent, often relative to untreated cells.

The test system of data set [1] is NRF2 protein. Description: Immunoblot of NRF2 protein level in LC-1/SQSF cells. The format is cell-based, human. As to conditions: for expression of endogenous mutant NRF2 compared with control shNTC: Doxycycline induction 24 hours. Here is the method:
(§1) Anti-NRF2 antibody (ab31163) was from Abcam (Cambridge, Mass.) (17). NVP-BKM120 and TGX-221 was from Selleck (Houston, Tex.). LY 294002 was from Cell Signaling Technology (Beverly, Mass.).
(§2) Construction of the retroviral expression vector of short hairpin RNA (shRNA) was carried out as described (18). The shRNA-targeted sequences were as follows: NRF2-1 shRNA, […] (SEQ ID NO: 1); NRF2-2 shRNA, […] (SEQ ID NO: 2). The control vector contains nontargeting shRNA sequence. The entry vectors were recombined with pLKO-Tet-ON-puro by LR reactions (Invitrogen, Carlsbad, Calif.), in accordance with the manufacturer's instructions. After infection (multiplicity of infection >1), cells were selected and maintained in the presence of 1 μg/ml puromycin.
A general note: In western blotting, separated proteins are transferred to a membrane and probed.

For data set [2], the system named is NRF2 protein. Description: Immunoblot of NRF2 protein level in RERF-LC-AI cells. The format is cell-based, human. The conditions noted are these: for NRF2 protein level / expression of endogenous NRF2 compared with control shNTC: RERF-LC-AI, Doxycycline induction 24 hours. Here is the method: as §1, §2
The subject of data set [3] is LC-1/SQSF cells. Description: Clonogenic survival, LC-1/SQSF cells. The format is cell-based, human. Here is the method:
(§3) Lung SqCC cell lines from the Cancer Cell Line Encyclopedia (CCLE) were authenticated per CCLE protocol (14) and grown in recommended media supplemented with 10% fetal bovine serum (Benchmark, Calif.) and 100 U/mL Penicillin, 100 μg/mL of Streptomycin, and 292 μg/mL L-Glutamine (Corning, N.Y.). All cultures were maintained at 37° C. in a humidified 5% CO2 atmosphere and tested to ensure absence of Mycoplasma. Plates were treated with 0 Gy (no radiation) or with 1-10 Gy of γ-radiation delivered at 0.91 Gy/min with a ^137Cs source using a GammaCell 40 Exactor (Best Theratronics; Ontario, Canada).
(§4) Cells were plated at appropriate dilutions, irradiated, and incubated for 10-14 days for colony formation. For chemical radiosensitization measurements, drug was added 24 hours prior to irradiation. Colonies were fixed in a solution of acetic acid and methanol 1:3 (v/v) and stained with 0.5% (w/v) crystal violet as previously described (15). A colony was defined to consist of 50 cells or greater. Colonies were counted digitally using ImageJ software as described (16). Integration of survival as a function of dose, or area under the curve, was calculated using Prism, GraphPad Software (La Jolla, Calif.).

A further data set concerns RERF-LC-AI cells. Description: Clonogenic survival, RERF-LC-AI cells. The format is cell-based, human. Here is the method:
as §3, §4

For another data set, the system named is NRF2 activity. Description: hNQO1-ARE-luc luciferase reporter assay in LC-1/SQSF cells. The format is cell-based, human. As to conditions: 24 hours. The procedure:
LC-1/SQSF, hNQO1-ARE-luc cells were produced as follows. hQR41-ARE sequence (19) and firefly luciferase-PEST sequence (Promega, WI) was cloned into plenti6/BLOCK-iT-DEST lentivirus backbone (Invitrogen, NY) at the restriction sites of NcoI and Hind III. The engineered region was sequence verified and matched 100% of the expected sequences. The plasmid was stably infected to the LC-1/SQSF cell line, selected and maintained in 5 μg/ml Blasticidin in the recommended media.
Background: A reporter such as luciferase makes a cellular process visible.

The next data set concerns HCC15 cells. Description: Clonogenic survival, HCC15 cells. As to conditions: HCC15 (KEAP1 mutant), drug 24 hours before radiation. The format is cell-based, human. The procedure: as §3, §4
The next data set deals with A549 cells. Description: Clonogenic survival, A549 cells. The format is cell-based, human. As to conditions: A549, drug 24 hours before radiation. Here is the method: as §3, §4
The subject of another data set is SQ-1 cells. The data set can be described thus: Clonogenic survival, SQ-1 cells. The format is cell-based, human. As to conditions: SQ-1 (NFE2L2 and KEAP1 wild type), drug 24 hours before radiation. Here is the method: as §3, §4
Data set [4] in a line: Cellular viability of LC-1/SQSF cells after incubation with PI3K inhibitors. As to conditions: human, LC-1/SQSF cells stably expressing hNQO1-ARE-luc.
Description: (§5) To test this, LC-1/SQSF cells were generated that stably express hNQO1-ARE-luc, containing cis-acting antioxidant response regulatory elements in the 5′-flanking region of NAD(P)H:quinone oxidoreductase (NQO1) (19), a gene induced by NRF2. Luciferase activity was measured in LC-1/SQSF, hNQO1-ARE-luc cells after incubation with LY 294002, NVP-BKM120, or TGX-221. […] Cellular viability was measured after incubation with LY 294002, NVP-BKM120, or TGX-221.
Data set [5] deals with LC-1/SQSF cells. Described as above. The conditions noted are these: LC-1/SQSF, 48 hours.
Description: as §5
Data set [6] concerns LC-1/SQSF cells.
Description: as §5

Turning to “shNRF2-2: lentiviral-inducible NRF2-targeted shRNA, target sequence GCTCCTACTGTGATGTGAAAT (SEQ ID NO: 2) (the letters are possibly those of the target site)”, the “expression of endogenous mutant NRF2 compared with control shNTC” value in the data set on NRF2 protein [1] is “significantly reduced”. Besides, the “NRF2 protein level / expression of endogenous NRF2 compared with control shNTC” value in the data set with NRF2 protein [2] was “significantly reduced”. Moreover, in the data set with LC-1/SQSF cells [3] (LC-1/SQSF, no radiation), the “clonogenic capacity after lentiviral-induction” value is “significantly diminished clonogenic capacity”. For the same molecule, the “radiation sensitivity, clonogenic survival” value with RERF-LC-AI cells (RERF-LC-AI, 2, 4, 6 Gy after Doxycycline 24 hours) is listed as “did not result in any observable decrease”. The clonogenic capacity result in the data set with RERF-LC-AI cells (RERF-LC-AI, no radiation) is given as “did not result in any observable decrease”.

In the case of `Nc1cc(C(F)(F)F)c(-c2cc(N3CCOCC3)nc(N3CCOCC3)n2)cn1` [NVP-BKM120, 5-(2,6-dimorpholinopyrimidin-4-yl)-4-(trifluoromethyl)pyridin-2-amine], the “decrement in NRF2 activity (luciferase activity)” value in the data set on NRF2 activity was “significant decrement in NRF2 activity”. The “decrement in NRF2 protein level” value in the data set with NRF2 protein [1] (24 hours) was “significant decrement in NRF2 protein level”. Also, the “clonogenic survival with drug and radiation compared to control (0 Gy)” value with LC-1/SQSF cells [3] (LC-1/SQSF (NFE2L2 mutant), drug 24 hours before radiation) is listed as “synergistic decrement in clonogenic survival”; in the data set with HCC15 cells, “synergistic decrement in clonogenic survival”; with A549 cells it was “synergistic decrement in clonogenic survival”. Moreover, the “synergy between drug and radiation, clonogenic survival” value is on record as “significantly less synergy” in the data set on RERF-LC-AI cells (RERF-LC-AI (NFE2L2 and KEAP1 wild type), drug 24 hours before radiation); “significantly less synergy” in the data set on SQ-1 cells. The same molecule gave a viability at 24 h in data set [4] of more than 90%. The “decrement in cellular viability” value in the data set with LC-1/SQSF cells [5] is reported as “mirrored the effect on NRF2 activity”.

Turning to `O=c1cc(N2CCOCC2)oc2c(-c3ccccc3)cccc12` [LY 294002], the viability at 24 h in data set [4] is more than 90%.

In the case of `CC(C)(C)c1cc(O)ccc1O` [tBHQ, tert-Butylhydroquinone], the “NRF2 stabilization (NRF2 protein level)” value with NRF2 protein [2] (RERF-LC-AI cells, -/+ tBHQ) is recorded as “NRF2 stabilization”.

As to “shNRF2-1: lentiviral-inducible NRF2-targeted shRNA, target sequence AGAGCAAGATTTAGATCATTT (SEQ ID NO: 1) (the letters are possibly those of the target site)”, the “expression of endogenous mutant NRF2 compared with control shNTC” value in the data set on NRF2 protein [1] is recorded as “significantly reduced”. Besides, the “NRF2 protein level / expression of endogenous NRF2 compared with control shNTC” value in the data set with NRF2 protein [2] is “minimal affect”. Besides, the “sensitivity to radiation versus control shNTC cells, clonogenic survival” value in the data set with LC-1/SQSF cells [3] (LC-1/SQSF, 2, 4, 6 Gy after Doxycycline 24 hours) is “more sensitive to radiation”.

Take `Cc1cc(C(C)Nc2ccccc2)c2nc(N3CCOCC3)cc(=O)n2c1` (stereo not drawn) [TGX-221]: the viability with LC-1/SQSF cells [6] is recorded as more than 90%. The “decrement in cellular viability” value with LC-1/SQSF cells [5] is “mirrored the effect on NRF2 activity”.
